Values quoted from earlier work in US20240050950A1, “GRADIENT-BASED MICROFLUIDIC CIRCUIT, DEVICE, AND METHOD FOR PERFORMING AN ASSAY” (priority 2020, published 2024).
Where a name gives a salt, the structure may show the parent alone. Read-outs that look alike come from different tables or passages of the source. Square brackets hold non-standard residues; d marks the D form. Peptide text beside a SMILES is read from it. * marks the point of attachment. dPhe(4-NHCONH2) = NC(=O)Nc1ccc(C[C@@H](N)C(=O)O)cc1; Dihydroorotyl(S) = O=C1C[C@@H](C(=O)*)NC(=O)N1; dPhe(4-Cl) = N[C@H](Cc1ccc(Cl)cc1)C(=O)O; Phe(4-NH2) = Nc1ccc(C[C@H](N)C(=O)O)cc1; d2Nal = N[C@H](Cc1ccc2ccccc2c1)C(=O)O; Lys(iPr) = CC(C)NCCCC[C@H](N)C(=O)O; d3Pal = N[C@H](Cc1cccnc1)C(=O)O

Settings: cited from earlier work
[1] = Table 1, antimicrobial agents/drugs

Compound	Molar volume (Table 2, anticancer drugs) [cm^3]	Molar volume [1] [cm^3]	further results
CO[C@H]1C[C@@H]2CC[C@@H](C)[C@@](O)(O2)C(=O)C(=O)N2CCCC[C@H]2C(=O)O[C@H]([C@H](C)C[C@@H]2CC[C@@H](OCCO)[C@H](OC)C2)CC(=O)[C@H](C)/C=C(\C)[C@@H](O)[C@@H](OC)C(=O)[C@H](C)C[C@H](C)/C=C/C=C/C=C/1C [Afinitor (Everolimus), Everolimus]	811.2 ± 5.0		
CC(=O)O[C@@]12CO[C@@H]1C[C@H](O)[C@@]1(C)C(=O)[C@H](O)C3=C(C)[C@@H](OC(=O)[C@H](O)[C@@H](NC(=O)OC(C)(C)C)c4ccccc4)C[C@@](O)([C@@H](OC(=O)c4ccccc4)[C@H]21)C3(C)C [Docetaxel (Taxotere), Docetaxel]	585.7 ± 5.0		
CCCCCOC(=O)Nc1nc(=O)n([C@@H]2O[C@H](C)[C@@H](O)[C@H]2O)cc1F [Capecitabine (Xeloda), Capecitabine]	240.5 ± 7.0		
CC(C)Cn1cnc2c(N)nc3ccccc3c21 [Aldara (Imiquimod), Imiquimod]	187.7 ± 7.0		
NC(=O)c1ncn([C@@H]2O[C@H](CO)[C@@H](O)[C@H]2O)n1 [Ribavirin]		117.0 ± 7.0	
CC[C@@H](C(=O)[C@@H](C)[C@@H](O)[C@H](C)[C@@H]1O[C@@H]([C@@H](CC)C(=O)O)CC[C@@H]1C)[C@H]1O[C@]2(C=C[C@@H](O)[C@]3(CC[C@@](C)([C@H]4CC[C@](O)(CC)[C@H](C)O4)O3)O2)[C@H](C)C[C@@H]1C [Salinomycin]		633.5 ± 5.0	
CC(=O)N[C@H](Cc1ccc2ccccc2c1)C(=O)N[C@H](Cc1ccc(Cl)cc1)C(=O)N[C@H](Cc1cccnc1)C(=O)N[C@@H](CO)C(=O)N[C@@H](Cc1ccc(NC(=O)[C@@H]2CC(=O)NC(=O)N2)cc1)C(=O)N[C@H](Cc1ccc(NC(N)=O)cc1)C(=O)N[C@@H](CC(C)C)C(=O)N[C@@H](CCCCNC(C)C)C(=O)N1CCC[C@H]1C(=O)N[C@H](C)C(N)=O [Degarelix] (Ac-[d2Nal][dPhe(4-Cl)][d3Pal]S[Phe(4-NH2)](Dihydroorotyl(S))[dPhe(4-NHCONH2)]L[Lys(iPr)]P[dA]-NH2)	1231.3 ± 3.0		
O=C(O)CN(CC(=O)O)Cc1cc2c(cc1O)Oc1cc(O)c(CN(CC(=O)O)CC(=O)O)cc1C21OC(=O)c2ccccc21 [calcein]			Molar volume (fluorescent dyes): 356±5 cm^3/mole
Lysobactin		895.9 ± 7.0	
C[C@@H](O[C@H]1OCCN(Cc2n[nH]c(=O)[nH]2)[C@H]1c1ccc(F)cc1)c1cc(C(F)(F)F)cc(C(F)(F)F)c1 [Aprepitant]	353.5 ± 7.0		
CC1(C)S[C@@H]2[C@H](NC(=O)[C@H](NC(=O)N3CCNC3=O)c3ccccc3)C(=O)N2[C@H]1C(=O)O [D-α-([Imidazolidin-2-on-1-yl]carbonylamino)benzylpenicillin]		296.6 ± 5.0	
CC(C)(O/N=C(\C(=O)N[C@@H]1C(=O)N2C(C(=O)[O-])=C(C[n+]3ccccc3)CS[C@H]12)c1csc(N)n1)C(=O)O [Ceftazidime]		330.2 ± 7.0	
CNNCc1ccc(C(=O)NC(C)C)cc1 [Matulane (Procarbazine Hydrochloride), Procarbazine Hydrochloride]	213.6 ± 3.0		
COC1=C(N)C(=O)c2nc(-c3nc(C(=O)O)c(C)c(-c4ccc(OC)c(OC)c4O)c3N)ccc2C1=O [Streptonigrin (Bruneomycin, Nigrin), Streptonigrin]		322.2 ± 5.0	
COC(=O)N[C@@H](C)CNc1nccc(-c2cn(C(C)C)nc2-c2cc(Cl)cc(NS(C)(=O)=O)c2F)n1 [Braftovi (Encorafenib), Encorafenib]	371.6 ± 7.0		
O=C(Nc1cnn2ccc(N3CCC[C@@H]3c3cc(F)ccc3F)nc12)N1CC[C@H](O)C1 [Larotrectinib Sulfate (Vitrakvi), Larotrectinib Sulfate]	274.6 ± 7.0		
CO/C1=C\C(C)=C\[C@@H](C)[C@@H](O)[C@@H](C)C/C(C)=C/C=C/[C@H](OC)[C@@H]([C@@H](C)[C@@H](O)[C@H](C)[C@@]2(O)C[C@@H](OC(=O)/C=C/C(=O)NC3=C(O)CCC3=O)[C@H](C)[C@@H](C(C)C)O2)OC1=O [Bafilomycin B1]		667.1 ± 5.0	
Lactoferricin B (SITCVRRAFALECIRAIAEKKADAV; Lactoferricin-B; UniProt P24627 52-76, looked up, fragment) [Lactoferricin B (metallibure)]		184.7 ± 3.0	
Reveromycin A [Reveromycin A (MFCD00912537)]		542.2 ± 5.0	
Fengycin [Fengycin (Plipastatin)]			Molar volume (Table 3, antifungal drugs and other molecules): 1105.9 ± 5.0 cm^3
C/C(=C\C(=O)OCCCCCCCCC(=O)O)C[C@@H]1OC[C@H](C[C@@H]2O[C@H]2[C@@H](C)[C@H](C)O)[C@@H](O)[C@H]1O [Mupirocin]		423.0 ± 3.0	
COc1nc(N)nc2c1ncn2[C@@H]1O[C@H](CO)[C@@H](O)[C@@H]1O [Arranon (Nelarabine), Nelarabine]	149.8 ± 7.0		
CC[C@H](C)C(=O)O[C@H]1CCC=C2C=C[C@H](C)[C@H](CC[C@@H]3C[C@@H](O)CC(=O)O3)[C@H]21 [Mevastatin]		343.8 ± 5.0	
[H]/N=C(/N)N[C@H]1[C@H](O)[C@@H](O)[C@H](O[C@@H]2O[C@@H](C)[C@](O)(C=O)[C@H]2O[C@@H]2O[C@@H](CO)[C@H](O)[C@@H](O)[C@@H]2NC)[C@@H](N/C(N)=N\[H])[C@@H]1O [Streptomycin]		293.4 ± 7.0	
CC1=C(C(=O)O)N2C(=O)[C@@H](NC(=O)[C@H](N)c3ccccc3)[C@H]2SC1 [Cefalexin]		231.3 ± 5.0	

Compound	Molar volume (Table 2, anticancer drugs) [cm^3]	Molar volume [1] [cm^3]	further results
gramicidin s		919.5 ± 5.0	
CO[C@@H]1[C@H](O)C[C@@H](O[C@@H]2C[C@H](Oc3cc4cc5c(c(O)c4c(O)c3C)C(=O)[C@@H](O[C@H]3C[C@@H](O[C@H]4C[C@@H](O[C@H]6C[C@](C)(O)[C@@H](OC(C)=O)[C@H](C)O6)[C@H](O)[C@@H](C)O4)[C@H](O)[C@@H](C)O3)[C@H]([C@H](OC)C(=O)[C@@H](O)[C@@H](C)O)C5)O[C@H](C)[C@@H]2OC(C)=O)O[C@@H]1C [Chromomycin A3]		827.2 ± 5.0	
4-Hydroxytamoxifen [4-Hydroxytamoxifen ((Z)-Afimoxifene)]		354.6 ± 3.0	
N#CC[C@H](C1CCCC1)n1cc(-c2ncnc3[nH]ccc23)cn1 [Ruxolitinib phosphate]	218.6 ± 7.0		
Alemtuzumab	165.7 ± 7.0		
N=C(N)NCCCC[C@H](O)CC(=O)NC(O)C(=O)NCCCCNCCCN (some centres unmarked) [Spergualin]		304.4 ± 7.0	
CC(C)(O)CNc1nc(Nc2ccnc(C(F)(F)F)c2)nc(-c2cccc(C(F)(F)F)n2)n1 [Enasidenib Mesylate]	320.4 ± 3.0		
CC(=O)O[C@H]1CC[C@@]2(C)C(=CC[C@@H]3[C@@H]2CC[C@]2(C)C(c4cccnc4)=CC[C@@H]32)C1 [Abiraterone acetate (Zytiga), Abiraterone acetate]	343.0 ± 5.0		
CC1(C)S[C@@H]2[C@H](NC(=O)[C@H](N)c3ccc(O)cc3)C(=O)N2[C@H]1C(=O)O [Amoxicillin]		236.2 ± 5.0	
COc1ccc(C[C@H](N)C(=O)N[C@H]2[C@@H](O)[C@H](n3cnc4c(N(C)C)ncnc43)O[C@@H]2CO)cc1 [PUROMYCIN]		311.7 ± 7.0	
C[C@@H]1C[C@H](C)C[C@H](C)[C@@H](O)CC(=O)O[C@H]([C@@H]2CCC[C@H]2C(=O)O)C/C=C/C=C(/C#N)[C@H](O)[C@@H](C)C1 [Borrelidin]		426.5 ± 5.0	
N[C@@H]1CONC1=O [D-Cycloserine]		79.8 ± 3.0	
CO[C@@]1(NC(=O)C(C(=O)O)c2ccc(O)cc2)C(=O)N2C(C(=O)O)=C(CSc3nnnn3C)CO[C@@H]21 (some centres unmarked) [Moxalactam (Latamoxef), Moxalactam]		292.5 ± 7.0	
Magainin I		1900.4 ± 3.0	
Nc1ncnc2c1ncn2[C@@H]1O[C@H](CO)[C@@H](O)[C@@H]1O [Adenine 9-β-D-arabinofuranoside]		128.1 ± 7.0	
COC(=O)[C@@]1(O)C[C@H]2O[C@]1(C)n1c3ccccc3c3c4c(c5c6ccccc6n2c5c31)C(=O)NC4 [K-252a]		278.7 ± 7.0	
CCC(=C/[C@H](C)C/C=C/C(C)=C/[C@@H](C)C(=O)[C@@H](C)[C@H](O)[C@@H](C)C/C(C)=C/C(=O)O)/C=C/[C@@H]1OC(=O)C=C[C@@H]1C [Leptomycin B]		504.3 ± 3.0	
CO[C@H]1/C=C/O[C@@]2(C)Oc3c(C)c(O)c4c(c3C2=O)C2=NC3(CCN(CC(C)C)CC3)NC2=C(NC(=O)/C(C)=C\C=C\[C@H](C)[C@H](O)[C@@H](C)[C@@H](O)[C@@H](C)[C@H](OC(C)=O)[C@@H]1C)C4=O [Rifabutin]		632.4 ± 7.0	
CC[C@]1(O)C[C@@H]2CN(CCc3c([nH]c4ccccc34)[C@@](C(=O)OC)(c3cc4c(cc3OC)N(C)[C@H]3[C@@](O)(C(=O)OC)[C@H](OC(C)=O)[C@]5(CC)C=CCN6CC[C@]43[C@@H]65)C2)C1 [Vinblastine Sulfate]	590.0 ± 5.0		
Nc1cccc2c1CN(C1CCC(=O)NC1=O)C2=O (centres unmarked) [Lenalidomide]	177.4 ± 3.0		
CC1=C(C(=O)O)N2C(=O)[C@@H](NC(=O)[C@H](N)C3=CCC=CC3)[C@H]2SC1 [Cephradine (Cefradine), Cephradine]		237.2 ± 5.0	
COC1=CC(=O)C[C@@H](C)[C@]12Oc1c(Cl)c(OC)cc(OC)c1C2=O [Griseofulvin]		255.1 ± 5.0	
C[C@@H]1Cc2c(Cl)cc(C(=O)N[C@@H](Cc3ccccc3)C(=O)O)c(O)c2C(=O)O1 [Ochratoxin A]		283.2 ± 3.0	
C=CC(=O)Nc1cc(Nc2nccc(-c3cn(C)c4ccccc34)n2)c(OC)cc1N(C)CCN(C)C [Osimertinib (Tagrisso), Osimertinib]	418.4 ± 7.0		
CC[C@H]1OC(=O)[C@H](C)[C@@H](O[C@H]2C[C@@](C)(OC)[C@@H](O)[C@H](C)O2)[C@H](C)[C@@H](O[C@@H]2O[C@H](C)C[C@H](N(C)C)[C@H]2O)[C@](C)(OC)C[C@@H](C)C(=O)[C@H](C)[C@@H](O)[C@]1(C)O [Clarithromycin]		631.9 ± 5.0	
